Patent US20020198510A1, “Method for nasal application of a medicinal substance” (priority 2001, published 2002)

Set-up: species or system chinchillas
Settings: in vivo
Description: To show the distribution of liquid administered through the nose, Evans Blue Dye (0.3%) was administered through a micropipette tip into the nose of mice and chinchillas at various doses, at various levels of sedation or anesthesia, and with the animals in various positions.

Cc1cc(-c2ccc(/N=N/c3ccc4c(S(=O)(=O)[O-])cc(S(=O)(=O)[O-])c(N)c4c3O)c(C)c2)ccc1/N=N/c1ccc2c(S(=O)(=O)[O-])cc(S(=O)(=O)[O-])c(N)c2c1O.[Na+].[Na+].[Na+].[Na+] [Dye, Evans Blue Dye]
Dye retention in nasal passages and sinuses by alertness: more dye is retained in the nasal passages and sinuses when administered to an alert chinchilla
Dye retention in nasal passages and sinuses by position: more dye is retained in the nasal passages and sinuses in the chinchilla, when the dye is administered in the prone position than when administered in the supine position
